Values joined by “and” are separate entries in the source; they are usually repeats but may differ in a detail not shown here. Identical values can stand only once. Like-named read-outs stand apart in the source and are kept apart here.
Columns and labels:
[1] = Antioxidant capacity (inhibition of oxidation of ABTS to ABTS radical cation by metmyoglobin, Cayman kit); type: biochemical; details: for Antioxidant capacity (Trolox equivalents): n = 4, mean ± SEM
Experimental: The amount of ABTS^∙+ can be monitored spectrophotometrically. The degree of suppression of absorbance caused by the compound of interest is proportional to the concentration of […], which is expressed as Trolox equivalents (μg/mL). […] No additional dilution was employed. To run the assay, 10 μL of sample was combined with 10 μL metmyoglobin and 150 μL chromogen. Then, 40 μL of hydrogen peroxide working solution was added within 1 min to all the samples. The plate was covered and incubated on a shaker for 5 min at room temperature […]), and the absorbance was measured at 750 nm using the Synergy HT multiwell plate reader and Gen5 data analysis software (Biotek Instruments Inc., Winooski, VT, USA). The assay was performed in quadruplet. For more information regarding the assay protocol, please refer to the instructions for the kit (Antioxidant Assay Kit from Cayman Chemical—Cat. no. 709091).

[2] = Pharmacokinetic study in cannulated male Sprague-Dawley rats (serum and urine, HPLC); type: in vivo, rat; details: for CL renal: serum and urine; for AUC: n = 4 (abstract); for bioavailability: read-out: Bioavailability (F%); for AUC(0-inf): n = 4; for Cumulative amount excreted in urine: over 72 h; for CLhepatic: CLtotal − CLrenal
Source text: The HPLC system used was a Shimadzu HPLC (Kyoto, Japan), consisting of two LC-10A pumps, a SIL-10AF autoinjector, a SPD-M10A photodiode array detector, and a SCL-10A system controller. Data collection and integration were achieved using Shimadzu EZ Start Class VP (version 7.4) software. A Phenomenex Luna C18(2) (5 μm, 250 × 4.60 mm) column was used. The mobile phase consisted of acetonitrile and water (62 : 38 v/v) that were filtered and degassed under reduced pressure prior to use. Pinosylvin was used as the internal standard. […] Ultraviolet detection was carried out at 327 nm. […] The bias of the assay was <15% and was within 13% at the LOQ [9].
Male Sprague-Dawley rats (≈200 g) were obtained from Simonsen Laboratories (Gilroy, CA, USA) and allowed food (Purina Rat Chow 5001) and water ad libitum upon arrival to the vivarium. Rats were housed in a temperature- and humidity-controlled facility with a 12 h light/dark cycle. Prior to the first day of the pharmacokinetic experiment, the rats were anesthetized using isoflurane (IsoFlo, Abbott Laboratories, Abbot Park, IL, USA) coupled with an oxygen regulator, and monitored by pedal reflex and respiration rate to maintain a surgical plane of anesthesia. The right jugular veins of the rats were cannulated with sterile silastic cannulas (Dow Corning, Midland, MI, USA). After cannulation, Intramedic PE-50 polyethylene tubing (Becton, Dickinson and Company, Franklin Lakes, NJ, USA) was exposed through the dorsal skin. The cannulas were flushed with nonheparinized 0.9% sterile saline solution. The animals were placed in metabolic cages to recover and fasted overnight.
No pharmacokinetics studies are reported in the literature for 3-methoxypterostilbene. Despite the paucity of 3-methoxypterostilbene pharmacokinetic studies in the literature, studies on other stilbenes have reported intravenous (IV) dosage ranges from 10 to 20 mg/kg and from 50 to 300 mg//kg for oral (PO) dosage. In keeping with the literature, doses of 10 mg/kg IV and 100 mg/kg PO were chosen.
Male Sprague-Dawley rats (n = 8, average weight 200 g) were cannulated as described in the Animals and Surgical Procedures section. The animals were placed in metabolic cages following surgery where they were recovered overnight and fasted for 12 h prior to dosing. On the day of the experiment, the animals were dosed with 3-methoxypterostilbene in PEG 400 either IV (10 mg/kg, n = 4) or PO (100 mg/kg, n = 4). After dosing, a series of whole blood samples (0.5 mL) were collected at 0, 1, and 15 min, and 0.5, 1, 2, 4, 6, 12, 24, 48, and 72 h and 0, 0.25, 0.5, 1, 2, 4, 6, 12, 24, 48, and 72 h for IV and PO dosed rats, respectively. The cannulas were flushed with 0.5 mL 0.9% nonheparinized saline solution after each sample collection. The samples were collected into regular 2.0 mL Eppendorf tubes, centrifuged at 10,000 rpm for 5 min (Beckman Microfuge centrifuge, Beckman Coulter Inc., Fullerton, CA, USA), and the serum was collected. The serum was divided into two 0.1 mL fractions and placed into regular 2.0 mL Eppendorf tubes labeled as free and total serum samples. Samples were stored at −20°C until analyzed. Urine samples were also collected at 0, 2, 6, 12, 24, 48, and 72 h following 3-methoxypterostilbene administration. The volumes of urine produced by the rats were recorded, and two 0.1 mL aliquots were collected into separate prelabeled regular polypropylene microcentrifuge tubes and labeled as free and total urine samples and stored at −20°C until analyzed. At 72 h after dose, the animals were euthanized exsanguinated, and serum was collected.
Serum and urine samples (0.1 mL) were run in duplicate with or without the addition of 20 μL of 500 U/mL β-glucuronidase and incubated in a shaking water bath at 37°C for 2 h to liberate any glucuronide conjugates. The proteins present in the serum samples were precipitated using 1 mL of −20°C acetonitrile. […]

[3] = test system: α-glucosidase from Saccharomyces cerevisiae; experiment: α-Glucosidase inhibition colorimetric assay (PNPG); type: biochemical; details: 0 to 200 μg/mL, n = 6
[4] = rat, intravenous 10 mg/kg, mean ± SEM
[5] = rat, oral 100 mg/kg, mean ± SEM
[6] = rat, oral 100 mg/kg, mean ± SEM, 100 mg/kg

In the case of COc1cc(/C=C/c2ccc(O)c(OC)c2)cc(OC)c1 [3-methoxypterostilbene, trans-3,3′-5-trimethoxy-4′-hydro-xystilbene], the “Antioxidant activity (in words)” value ([1]; 1-100 μg/mL) is reported as “modest concentration-dependent antioxidant activity”, the “Antioxidant capacity (Trolox equivalents)” value ([1]; at 1 μg/mL in DMSO) is reported as 98.6 ± 13.7 μg/mL and 0.394 ± 0.0546 mM and the “Antioxidant capacity (Trolox equivalents)” value ([1]; at 100 μg/mL in DMSO) is reported as 174 ± 2.70 μg/mL and 0.695 ± 0.0094 mM. It also gave a CL renal ([2]; male, Sprague-Dawley, rat, intravenous 10 mg/kg, mean ± SEM) of 12.7 mL/min/kg, a CL renal ([2]; male, Sprague-Dawley, rat, oral 100 mg/kg, mean ± SEM) of 0.167 mL/min/kg and an AUC ([2]; male, Sprague-Dawley, serum, rat, IV 10 mg/kg, mean ± SEM) of 48.1 ± 23.8 µg·h/mL. The concentration at 24 h ([2]; male, Sprague-Dawley, serum, rat, IV 10 mg/kg, below detectable concentrations, read-out: Serum concentration after 24 hours) was < 50 ng/mL, the AUC ([2]; male, Sprague-Dawley, serum, rat, PO 100 mg/kg, mean ± SEM) was 229 ± 44.6 µg·h/mL and the MRT ([2]; male, Sprague-Dawley, serum, rat, intravenous 10 mg/kg, mean ± SEM) was 26 ± 15 h. It also gave a clearance ([2]; male, Sprague-Dawley, serum, rat, intravenous 10 mg/kg, mean ± SEM, read-out: CLtotal (converted)) of 797 mL/min/kg, a half-life ([2]; male, Sprague-Dawley, serum, rat, intravenous 10 mg/kg, mean ± SEM, read-out: t 1/2 serum (converted)) of 18.9 ± 10.9 h and a bioavailability ([2]; male, Sprague-Dawley, serum, rat, intravenous 10 mg/kg) of 100%. It also gave a bioavailability ([2]; male, Sprague-Dawley, serum, rat, oral 100 mg/kg vs 10 mg/kg IV, mean ± SEM) of 50.6 ± 10%, an MRT ([2]; male, Sprague-Dawley, serum, rat, oral 100 mg/kg, mean ± SEM) of 105 ± 13.1 h and a half-life ([2]; male, Sprague-Dawley, serum, rat, oral 100 mg/kg, mean ± SEM, read-out: t 1/2 serum (converted)) of 73.3 ± 8.91 h. For the same compound, the half-life ([2]; male, Sprague-Dawley, urine, rat, intravenous 10 mg/kg, mean ± SEM, read-out: t 1/2 urine (converted)) was 9.54 ± 1.51 h, the half-life ([2]; male, Sprague-Dawley, urine, rat, oral 100 mg/kg, mean ± SEM, read-out: t 1/2 urine (converted)) was 20.6 ± 3.01 h and the Tmax ([2]; male, Sprague-Dawley, rat serum, PO 100 mg/kg, average) was 0.5 h. The AUC(0-inf) ([2]; male, Sprague-Dawley, rat serum, intravenous 10 mg/kg, mean ± SEM) was 48.1 ± 23.8 µg·h/mL, the AUC(0-inf) ([2]; male, Sprague-Dawley, rat serum, oral 100 mg/kg, mean ± SEM) was 229 ± 44.6 µg·h/mL and the “Cumulative amount excreted in urine” value ([2]; rat, IV 10 mg/kg (~2 mg per rat)) was ~ 98 μg. The “Cumulative amount excreted in urine” value ([2]; rat, PO 100 mg/kg (20 mg per rat)) was 341 µg, the “f e (fraction excreted in urine unchanged)” value [2, 4] was 1.64 ± 0.950% and the Vdβ ([2]; rat, intravenous 10 mg/kg, mean ± SEM, 10 mg/kg) was 5.11 ± 0.38 L/kg and 5.11 ± 0.380 L/kg. For the same compound, the CLhepatic [2, 4] was 785 ± 388 mL/min/kg, the CLtotal [2, 5] was 8 ± 1.33 mL/min/kg and the “f e (fraction excreted in urine unchanged)” value [2, 5] was 1.24 ± 0.160%. For the same compound, the Vdβ [2, 6] was 52.0 ± 10.0 L/kg and 52.0 ± 10.5 L/kg, the CLhepatic [2, 6] was 8 ± 151.33 mL/min/kg and 8 ± 1.33 mL/min/kg and the “α-Glucosidase inhibition (in words)” value [3] was “does not appear to exhibit greater inhibition at higher concentrations”.

Source: PMC3652196, “Pharmacometrics of 3-Methoxypterostilbene: A Component of Traditional Chinese Medicinal Plants” (Evidence-based Complementary and Alternative Medicine : eCAM, 2013)
